Experimental data reported in publication PMC7345083, “Vancomycin-Lipopeptide Conjugates with High Antimicrobial Activity on Vancomycin-Resistant Enterococci” (Pharmaceuticals, 2020).
Converted amounts (≈) assume the structure as drawn.

These compounds were tested on Enterococcus faecium UL602570 (vanA, clinical isolate). Conditions: UL602570 (vanA, clinical isolate, 18 h).
Format: cell-based
Protocol: The minimum inhibitory concentration (MIC) was determined by microdilution following the EUCAST and CLSI guidelines via the broth microdilution assay on a 96-well plate. Substances were dissolved in saline solution (0.9%) at a concentration equimolar to 1.28 mg/mL vancomycin. With an increasing hydrophobicity, some substances had to be pre-dissolved in DMSO. The final concentration of DMSO remained below 1.5% and was compared to the DMSO control (no antimicrobial effect was observed up to the highest concentration tested (10%)). All substances were serially diluted on the 96-well plate using Mueller-Hinton-Broth II (cation adjusted). Vancomycin was always used as a control. For bacterial loading, an overnight culture of the referring strain was taken and adjusted to a turbidity corresponding to 10^8 cfu/mL. The bacterial suspension was further diluted to load a bacterial number of 10^6 cfu/mL on the 96-well plate and incubate it for 18 h at 35 ± 1 °C, as described before. MIC was defined as the lowest concentration without visible growth.

| SMILES | MIC median [µg/mL] | MIC range [µg/mL] |
| --- | --- | --- |
| CCCCCCCCCCCCCCCCCC(=O)N[C@@H](CCCNC(=N)N)C(=O)N[C@@H](CCCNC(=N)N)C(=O)N[C@@H](CCCNC(=N)N)C(=O)N[C@@H](CSC1CC(=O)N(CC2CCC(C(=O)NCCNC(=O)[C@H]3NC(=O)[C@H]4NC(=O)[C@H](NC(=O)[C@@H]5NC(=O)[C@H](CC(N)=O)NC(=O)[C@H](NC(=O)[C@@H](CC(C)C)NC)[C@H](O)c6ccc(c(Cl)c6)Oc6cc5cc(c6O[C@@H]5O[C@H](CO)[C@@H](O)[C@H](O)[C@H]5O[C@H]5C[C@](C)(N)[C@H](O)[C@H](C)O5)Oc5ccc(cc5Cl)[C@H]4O)c4ccc(O)c(c4)-c4c(O)cc(O)cc43)CC2)C1=O)C(N)=O (some centres unmarked) [VC-R3C-C18] | 10.17 (≈ 3.96 µM) | 5.08 to 10.17 |
| CN[C@H](CC(C)C)C(=O)N[C@H]1C(=O)N[C@@H](CC(N)=O)C(=O)N[C@H]2C(=O)N[C@H]3C(=O)N[C@H](C(=O)N[C@H](C(=O)NCCNC(=O)C4CCC(CN5C(=O)CC(SC[C@H](NC(=O)[C@H](CCCNC(=N)N)NC(=O)[C@H](CCCNC(=N)N)NC(=O)[C@@H](N)CCCNC(=N)N)C(N)=O)C5=O)CC4)c4cc(O)cc(O)c4-c4cc3ccc4O)[C@H](O)c3ccc(c(Cl)c3)Oc3cc2cc(c3O[C@@H]2O[C@H](CO)[C@@H](O)[C@H](O)[C@H]2O[C@H]2C[C@](C)(N)[C@H](O)[C@H](C)O2)Oc2ccc(cc2Cl)[C@H]1O (some centres unmarked) [VC-R3C] | 34.75 (≈ 15.1 µM) | 17.38 to 34.75 |
| CCCCCC(=O)N[C@@H](CCCNC(=N)N)C(=O)N[C@@H](CCCNC(=N)N)C(=O)N[C@@H](CCCNC(=N)N)C(=O)N[C@@H](CSC1CC(=O)N(CC2CCC(C(=O)N(C)[C@H](CC(C)C)C(=O)N[C@H]3C(=O)N[C@@H](CC(N)=O)C(=O)N[C@H]4C(=O)N[C@H]5C(=O)N[C@H](C(=O)N[C@H](C(=O)O)c6cc(O)cc(O)c6-c6cc5ccc6O)[C@H](O)c5ccc(c(Cl)c5)Oc5cc4cc(c5O[C@@H]4O[C@H](CO)[C@@H](O)[C@H](O)[C@H]4O[C@H]4C[C@](C)(N)[C@H](O)[C@H](C)O4)Oc4ccc(cc4Cl)[C@H]3O)CC2)C1=O)C(N)=O (some centres unmarked) [VN-R3C-C6] | 72.00 (≈ 30.6 µM) | 36.00 to 72.00 |
| CCCCCCCC(=O)N[C@@H](CCCNC(=N)N)C(=O)N[C@@H](CCCNC(=N)N)C(=O)N[C@@H](CCCNC(=N)N)C(=O)N[C@@H](CSC1CC(=O)N(CC2CCC(C(=O)N(C)[C@H](CC(C)C)C(=O)N[C@H]3C(=O)N[C@@H](CC(N)=O)C(=O)N[C@H]4C(=O)N[C@H]5C(=O)N[C@H](C(=O)N[C@H](C(=O)O)c6cc(O)cc(O)c6-c6cc5ccc6O)[C@H](O)c5ccc(c(Cl)c5)Oc5cc4cc(c5O[C@@H]4O[C@H](CO)[C@@H](O)[C@H](O)[C@H]4O[C@H]4C[C@](C)(N)[C@H](O)[C@H](C)O4)Oc4ccc(cc4Cl)[C@H]3O)CC2)C1=O)C(N)=O (some centres unmarked) [VN-R3C-C8] | 18.31 (≈ 7.68 µM) | 9.16 to 18.31 |
| CCCCCCCCCC(=O)N[C@@H](CCCNC(=N)N)C(=O)N[C@@H](CCCNC(=N)N)C(=O)N[C@@H](CCCNC(=N)N)C(=O)N[C@@H](CSC1CC(=O)N(CC2CCC(C(=O)N(C)[C@H](CC(C)C)C(=O)N[C@H]3C(=O)N[C@@H](CC(N)=O)C(=O)N[C@H]4C(=O)N[C@H]5C(=O)N[C@H](C(=O)N[C@H](C(=O)O)c6cc(O)cc(O)c6-c6cc5ccc6O)[C@H](O)c5ccc(c(Cl)c5)Oc5cc4cc(c5O[C@@H]4O[C@H](CO)[C@@H](O)[C@H](O)[C@H]4O[C@H]4C[C@](C)(N)[C@H](O)[C@H](C)O4)Oc4ccc(cc4Cl)[C@H]3O)CC2)C1=O)C(N)=O (some centres unmarked) [VN-R3C-C10] | 4.66 (≈ 1.93 µM) | 4.66 to 9.31 |
| CCCCCCCCCCCCCC(=O)N[C@@H](CCCNC(=N)N)C(=O)N[C@@H](CCCNC(=N)N)C(=O)N[C@@H](CCCNC(=N)N)C(=O)N[C@@H](CSC1CC(=O)N(CC2CCC(C(=O)N(C)[C@H](CC(C)C)C(=O)N[C@H]3C(=O)N[C@@H](CC(N)=O)C(=O)N[C@H]4C(=O)N[C@H]5C(=O)N[C@H](C(=O)N[C@H](C(=O)O)c6cc(O)cc(O)c6-c6cc5ccc6O)[C@H](O)c5ccc(c(Cl)c5)Oc5cc4cc(c5O[C@@H]4O[C@H](CO)[C@@H](O)[C@H](O)[C@H]4O[C@H]4C[C@](C)(N)[C@H](O)[C@H](C)O4)Oc4ccc(cc4Cl)[C@H]3O)CC2)C1=O)C(N)=O (some centres unmarked) [VN-R3C-C14] | 2.41 (≈ 0.977 µM) | 2.41 to 4.81 |
| CCCCCCCCCCCCCCCC(=O)N[C@@H](CCCNC(=N)N)C(=O)N[C@@H](CCCNC(=N)N)C(=O)N[C@@H](CCCNC(=N)N)C(=O)N[C@@H](CSC1CC(=O)N(CC2CCC(C(=O)N(C)[C@H](CC(C)C)C(=O)N[C@H]3C(=O)N[C@@H](CC(N)=O)C(=O)N[C@H]4C(=O)N[C@H]5C(=O)N[C@H](C(=O)N[C@H](C(=O)O)c6cc(O)cc(O)c6-c6cc5ccc6O)[C@H](O)c5ccc(c(Cl)c5)Oc5cc4cc(c5O[C@@H]4O[C@H](CO)[C@@H](O)[C@H](O)[C@H]4O[C@H]4C[C@](C)(N)[C@H](O)[C@H](C)O4)Oc4ccc(cc4Cl)[C@H]3O)CC2)C1=O)C(N)=O (some centres unmarked) [VN-R3C-C16] | 2.45 (≈ 0.982 µM) | 2.45 to 4.89 |
| CCCCCCCCCCCCCCCCCC(=O)N[C@@H](CCCNC(=N)N)C(=O)N[C@@H](CCCNC(=N)N)C(=O)N[C@@H](CCCNC(=N)N)C(=O)N[C@@H](CSC1CC(=O)N(CC2CCC(C(=O)N(C)[C@H](CC(C)C)C(=O)N[C@H]3C(=O)N[C@@H](CC(N)=O)C(=O)N[C@H]4C(=O)N[C@H]5C(=O)N[C@H](C(=O)N[C@H](C(=O)O)c6cc(O)cc(O)c6-c6cc5ccc6O)[C@H](O)c5ccc(c(Cl)c5)Oc5cc4cc(c5O[C@@H]4O[C@H](CO)[C@@H](O)[C@H](O)[C@H]4O[C@H]4C[C@](C)(N)[C@H](O)[C@H](C)O4)Oc4ccc(cc4Cl)[C@H]3O)CC2)C1=O)C(N)=O (some centres unmarked) [VN-R3C-C18] | 4.97 (≈ 1.97 µM) | 2.48 to 4.97 |
| CC(C)C[C@H](C(=O)N[C@H]1C(=O)N[C@@H](CC(N)=O)C(=O)N[C@H]2C(=O)N[C@H]3C(=O)N[C@H](C(=O)N[C@H](C(=O)O)c4cc(O)cc(O)c4-c4cc3ccc4O)[C@H](O)c3ccc(c(Cl)c3)Oc3cc2cc(c3O[C@@H]2O[C@H](CO)[C@@H](O)[C@H](O)[C@H]2O[C@H]2C[C@](C)(N)[C@H](O)[C@H](C)O2)Oc2ccc(cc2Cl)[C@H]1O)N(C)C(=O)C1CCC(CN2C(=O)CC(SC[C@H](NC(=O)[C@H](CCCNC(=N)N)NC(=O)[C@H](CCCNC(=N)N)NC(=O)[C@@H](N)CCCNC(=N)N)C(N)=O)C2=O)CC1 (some centres unmarked) [VN-R3C] | 67.75 (≈ 30 µM) | 32.00 to 67.75 |
| CCCCCC(=O)N[C@@H](CCCNC(=N)N)C(=O)N[C@@H](CCCNC(=N)N)C(=O)N[C@@H](CCCNC(=N)N)C(=O)N[C@@H](CSC1CC(=O)N(CC2CCC(C(=O)NCCN[C@@]3(C)C[C@H](O[C@H]4[C@H](Oc5c6cc7cc5Oc5ccc(cc5Cl)[C@@H](O)[C@@H](NC(=O)[C@@H](CC(C)C)NC)C(=O)N[C@@H](CC(N)=O)C(=O)N[C@H]7C(=O)N[C@H]5C(=O)N[C@H](C(=O)N[C@H](C(=O)O)c7cc(O)cc(O)c7-c7cc5ccc7O)[C@H](O)c5ccc(c(Cl)c5)O6)O[C@H](CO)[C@@H](O)[C@@H]4O)O[C@@H](C)[C@H]3O)CC2)C1=O)C(N)=O (some centres unmarked) [VV-R3C-C6] | 4.63 (≈ 1.93 µM) | 2.31 to 9.25 |
| CCCCCCCC(=O)N[C@@H](CCCNC(=N)N)C(=O)N[C@@H](CCCNC(=N)N)C(=O)N[C@@H](CCCNC(=N)N)C(=O)N[C@@H](CSC1CC(=O)N(CC2CCC(C(=O)NCCN[C@@]3(C)C[C@H](O[C@H]4[C@H](Oc5c6cc7cc5Oc5ccc(cc5Cl)[C@@H](O)[C@@H](NC(=O)[C@@H](CC(C)C)NC)C(=O)N[C@@H](CC(N)=O)C(=O)N[C@H]7C(=O)N[C@H]5C(=O)N[C@H](C(=O)N[C@H](C(=O)O)c7cc(O)cc(O)c7-c7cc5ccc7O)[C@H](O)c5ccc(c(Cl)c5)O6)O[C@H](CO)[C@@H](O)[C@@H]4O)O[C@@H](C)[C@H]3O)CC2)C1=O)C(N)=O (some centres unmarked) [VV-R3C-C8] | 1.49 (≈ 0.614 µM) | 0.30 to 2.39 |
| CCCCCCCCCC(=O)N[C@@H](CCCNC(=N)N)C(=O)N[C@@H](CCCNC(=N)N)C(=O)N[C@@H](CCCNC(=N)N)C(=O)N[C@@H](CSC1CC(=O)N(CC2CCC(C(=O)NCCN[C@@]3(C)C[C@H](O[C@H]4[C@H](Oc5c6cc7cc5Oc5ccc(cc5Cl)[C@@H](O)[C@@H](NC(=O)[C@@H](CC(C)C)NC)C(=O)N[C@@H](CC(N)=O)C(=O)N[C@H]7C(=O)N[C@H]5C(=O)N[C@H](C(=O)N[C@H](C(=O)O)c7cc(O)cc(O)c7-c7cc5ccc7O)[C@H](O)c5ccc(c(Cl)c5)O6)O[C@H](CO)[C@@H](O)[C@@H]4O)O[C@@H](C)[C@H]3O)CC2)C1=O)C(N)=O (some centres unmarked) [VV-R3C-C10] | 0.63 (≈ 0.257 µM) | 0.05 to 0.84 |
| CCCCCCCCCCCCCC(=O)N[C@@H](CCCNC(=N)N)C(=O)N[C@@H](CCCNC(=N)N)C(=O)N[C@@H](CCCNC(=N)N)C(=O)N[C@@H](CSC1CC(=O)N(CC2CCC(C(=O)NCCN[C@@]3(C)C[C@H](O[C@H]4[C@H](Oc5c6cc7cc5Oc5ccc(cc5Cl)[C@@H](O)[C@@H](NC(=O)[C@@H](CC(C)C)NC)C(=O)N[C@@H](CC(N)=O)C(=O)N[C@H]7C(=O)N[C@H]5C(=O)N[C@H](C(=O)N[C@H](C(=O)O)c7cc(O)cc(O)c7-c7cc5ccc7O)[C@H](O)c5ccc(c(Cl)c5)O6)O[C@H](CO)[C@@H](O)[C@@H]4O)O[C@@H](C)[C@H]3O)CC2)C1=O)C(N)=O (some centres unmarked) [VV-R3C-C14] | 0.46 (≈ 0.183 µM) | 0.31 to 0.62 |
